Source: patent publication US20230374007A1, “COMPOUNDS AND THEIR USE IN TREATING CANCER” (AstraZeneca AB, priority 2020, published 2023)

What follows are compounds tested against T1, cereblon (CRBN)—DNA damage protein 1 (DDB1) complex (Homo sapiens, UniProt Q96SW2) (assay: Cereblon HTRF binding assay).
T1 construct: encoding amino acid residues 1 to 442 (Uniprot Q96SW2); hexahistidine (N); thrombin cleavage site (N); made in house; host or cells: Sf9 insect cells (baculovirus co-infection)
Method in brief: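 Biotinylated His-tagged CRBN-DDB1 (0.2 nM, baculovirus-expressed) was combined with 0.2 nM terbium cryptate streptavidin and 2 nM Cy5-lenalidomide probe in 50 mM Tris-HCl pH 7.5, 100 mM NaCl, 1 mM TCEP, 500 μM EDTA, 0.01% Pluronic F127 for 2 h at r.t. HTRF ratio was normalized to plate controls. IC50 came from a Hill fit, given as mean of one or more experiments.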

T1 sequence (Q96SW2 with tags, fused parts or gaps): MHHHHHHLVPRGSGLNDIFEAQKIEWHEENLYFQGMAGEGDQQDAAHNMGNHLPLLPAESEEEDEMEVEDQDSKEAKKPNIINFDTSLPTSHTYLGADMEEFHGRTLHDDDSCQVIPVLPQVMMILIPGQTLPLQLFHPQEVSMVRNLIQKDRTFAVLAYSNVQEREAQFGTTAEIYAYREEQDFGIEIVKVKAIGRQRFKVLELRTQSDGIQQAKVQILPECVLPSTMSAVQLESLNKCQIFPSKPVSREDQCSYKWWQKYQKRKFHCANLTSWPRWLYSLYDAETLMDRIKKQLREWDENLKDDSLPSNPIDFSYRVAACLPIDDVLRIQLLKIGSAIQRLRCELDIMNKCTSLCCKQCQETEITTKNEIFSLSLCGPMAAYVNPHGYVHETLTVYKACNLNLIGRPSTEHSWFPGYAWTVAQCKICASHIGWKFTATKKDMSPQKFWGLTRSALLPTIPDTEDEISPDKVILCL

Row | Structure (SMILES) | IC50 [nM]
1 | CN1CCC(c2cc3c(N4CCC(=O)NC4=O)cccc3[nH]2)CC1 [Example 87, 1-(2-(1-Methylpiperidin-4-yl)-1H-indol-4-yl)dihydropyrimidine-2,4 (1H,3H)-dione] | 379
2 | Cn1c(C2CCNCC2)cc2c(N3CCC(=O)NC3=O)cccc21 [Example 88, 1-(1-Methyl-2-(piperidin-4-yl)-1H-indol-4-yl)dihydropyrimidine-2,4 (1H,3H)-dione] | 679
3 | CN1CCC(c2cc3c(N4CCC(=O)NC4=O)cccc3n2C)CC1 [Example 89, 1-(1-Methyl-2-(1-methylpiperidin-4-yl)-1H-indol-4-yl)dihydropyrimidine-2,4 (1H,3H)-dione] | 1210
4 | Cn1ccc2c(N3CCC(=O)NC3=O)cc(N3CCNCC3)cc21 [Example 90, 1-(1-Methyl-6-(piperazin-1-yl)-1H-indol-4-yl)dihydropyrimidine-2,4 (1H,3H)-dione] | 771
5 | O=C1CCN(c2cc(N3CCNCC3)cc3[nH]ccc23)C(=O)N1 [Example 91, 1-(6-(Piperazin-1-yl)-1H-indol-4-yl)dihydropyrimidine-2,4 (1H,3H)-dione] | 762
6 | O=C1CCN(c2ccn3cc(C4CCNCC4)nc3c2)C(=O)N1 [Example 92, 1-(2-(Piperidin-4-yl)imidazo[1,2-a]pyridin-7-yl)dihydropyrimidine-2,4 (1H,3H)-dione] | 5240
7 | O=C1CCN(c2ccc3c(N4CCNCC4)noc3c2)C(=O)N1 [Example 93, 1-(3-(Piperazin-1-yl)benzo[d]isoxazol-6-yl)dihydropyrimidine-2,4 (1H,3H)-dione] | 12800
8 | CN1CCN(c2noc3cc(N4CCC(=O)NC4=O)ccc23)CC1 [Example 94, 1-(3-(4-Methylpiperazin-1-yl)benzo[d]isoxazol-6-yl)dihydropyrimidine-2,4 (1H,3H)-dione] | 4200
9 | CC(=O)N1CCN(c2noc3cc(N4CCC(=O)NC4=O)ccc23)CC1 [Example 95, 1-(3-(4-Acetylpiperazin-1-yl)benzo[d]isoxazol-6-yl)dihydropyrimidine-2,4 (1H,3H)-dione] | 6580
10 | O=C1CCN(c2ccc3nc(C4CCNCC4)oc3c2)C(=O)N1 [Example 96, 1-(2-(Piperidin-4-yl)benzo[d]oxazol-6-yl)dihydropyrimidine-2,4 (1H,3H1)-dione] | 3740
11 | CN1CCC(c2nc3ccc(N4CCC(=O)NC4=O)cc3o2)CC1 [Example 97, 1-(2-(1-Methylpiperidin-4-yl)benzo[d]oxazol-6-yl)dihydropyrimidine-2,4 (1H,3H)-dione] | 2420
12 | O=C1CCN(c2ccc3nc(N4CCNCC4)oc3c2)C(=O)N1 [Example 98, 1-(2-(Piperazin-1-yl)benzo[d]oxazol-6-yl)dihydropyrimidine-2,4 (1H,3H)-dione] | 3120
13 | CN1CCN(c2nc3ccc(N4CCC(=O)NC4=O)cc3o2)CC1 [Example 99, 1-(2-(4-Methylpiperazin-1-yl)benzo[d]oxazol-6-yl)dihydropyrimidine-2,4 (1H,3H)-dione] | 4560
14 | O=C1CCN(c2ccc3sc(N4CCNCC4)nc3c2)C(=O)N1 [Example 100, 1-(2-(Piperazin-1-yl)benzo[d]thiazol-5-yl)dihydropyrimidine-2,4 (1H,3H)-dione] | 1070
15 | O=C1CCN(c2cccc3nc(N4CCNCC4)sc23)C(=O)N1 [Example 101, 1-(2-(Piperazin-1-yl)benzo[d]thiazol-7-yl)dihydropyrimidine-2,4 (1H,3H)-dione] | 161
16 | O=C1CCN(c2ccc3cc4n(c3c2)CCNC4)C(=O)N1 [Example 102, 1-(1,2,3,4-Tetrahydropyrazino[1,2-a]indol-7-yl)dihydropyrimidine-2,4 (1H,3H)-dione] | 274
17 | CN1CCn2c(cc3ccc(N4CCC(=O)NC4=O)cc32)C1 [Example 103, 1-(2-Methyl-1,2,3,4-tetrahydropyrazino[1,2-a]indol-7-yl)dihydropyrimidine-2,4 (1H,3H)-dione] | 682
18 | O=C1CCN(c2ccc3c(c2)cc2n3CCNC2)C(=O)N1 [Example 104, 1-(1,2,3,4-Tetrahydropyrazino[1,2-a]indol-8-yl)dihydropyrimidine-2,4 (1H,3H)-dione] | 283
19 | CN1CCn2c(cc3cc(N4CCC(=O)NC4=O)ccc32)C1 [Example 105, 1-(2-Methyl-1,2,3,4-tetrahydropyrazino[1,2-a]indol-8-yl)dihydropyrimidine-2,4 (1H,3H)-dione] | 460
20 | O=C1CCN(c2ccc3c(cnn3C3CCNCC3)c2)C(=O)N1 [Example 106, 1-(1-(Piperidin-4-yl)-1H-indazol-5-yl)dihydropyrimidine-2,4 (1H,3H)-dione] | 4040
21 | O=C1CCN(c2ccc3nn(C4CCNCC4)cc3c2)C(=O)N1 [Example 107, 1-(2-(Piperidin-4-yl)-2H-indazol-5-yl)dihydropyrimidine-2,4 (1H,3H)-dione] | 3780
22 | CN1CCC(n2ncc3cc(N4CCC(=O)NC4=O)ccc32)CC1 [Example 108, 1-(1-(1-Methylpiperidin-4-yl)-1H-indazol-5-yl)dihydropyrimidine-2,4 (1H,3H)-dione] | 3810

Row | Structure (SMILES) | IC50 [nM]
23 | O=C1CCN(c2ccc3cn(C4CCNCC4)nc3c2)C(=O)N1 [Example 109, 1-(2-(Piperidin-4-yl)-2H-indazol-6-yl)dihydropyrimidine-2,4 (1H,3H)-dione] | 1030
24 | CN1CCC(n2cc3ccc(N4CCC(=O)NC4=O)cc3n2)CC1 [Example 110, 1-(2-(1-Methylpiperidin-4-yl)-2H-indazol-6-yl)dihydropyrimidine-2,4 (1H,3H)-dione] | 655
25 | O=C1CCN(c2ccc3c(ccn3C3CCNCC3)c2)C(=O)N1 [Example 113, 1-(1-(Piperidin-4-yl)-1H-indol-5-yl)dihydropyrimidine-2,4 (1H,3H)-dione] | 1080
26 | CN1CCC(n2ccc3cc(N4CCC(=O)NC4=O)ccc32)CC1 [Example 114, 1-(1-(1-Methylpiperidin-4-yl)-1H-indol-5-yl)dihydropyrimidine-2,4 (1H,3H)-dione] | 1050
27 | CC(=O)N1CCC(n2ccc3cc(N4CCC(=O)NC4=O)ccc32)CC1 [Example 115, 1-(1-(1-Acetylpiperidin-4-yl)-1H-indol-5-yl)dihydropyrimidine-2,4 (1H,3H)-dione] | 933
28 | O=C1CCN(c2ccc3c(C4CCNCC4)c[nH]c3c2)C(=O)N1 [Example 116, 1-(3-(Piperidin-4-yl)-1H-indol-6-yl)dihydropyrimidine-2,4 (1H,3H)-dione] | 368
29 | CN1CCC(c2c[nH]c3cc(N4CCC(=O)NC4=O)ccc23)CC1 [Example 117, 1-(3-(1-Methylpiperidin-4-yl)-1H-indol-6-yl)dihydropyrimidine-2,4 (1H,3H)-dione] | 2160
30 | CC(=O)N1CCC(c2c[nH]c3cc(N4CCC(=O)NC4=O)ccc23)CC1 [Example 118, 1-(3-(1-Acetylpiperidin-4-yl)-1H-indol-6-yl)dihydropyrimidine-2,4 (1H,3H)-dione] | 389
31 | CN1CCC(c2cn(C)c3cc(N4CCC(=O)NC4=O)ccc23)CC1 [Example 119, 1-(1-Methyl-3-(1-methylpiperidin-4-yl)-1H-indol-6-yl)dihydropyrimidine-2,4 (1H,3H)-dione] | 1450
32 | O=C1CCN(c2ccc3ccn(C4CCNCC4)c3c2)C(=O)N1 [Example 120, 1-(1-(Piperidin-4-yl)-1H-indol-6-yl)dihydropyrimidine-2,4 (1H,3H)-dione] | 2200
33 | CN1CCC(n2ccc3ccc(N4CCC(=O)NC4=O)cc32)CC1 [Example 121, 1-(1-(1-Methylpiperidin-4-yl)-1H-indol-6-yl)dihydropyrimidine-2,4 (1H,3H)-dione] | 3840
34 | CC(=O)N1CCC(n2ccc3ccc(N4CCC(=O)NC4=O)cc32)CC1 [Example 122, 1-(1-(1-Acetylpiperidin-4-yl)-1H-indol-6-yl)dihydropyrimidine-2,4 (1H,3H)-dione] | 2120
35 | O=C1CCN(c2ccc(N3CCNCC3)c3[nH]ccc23)C(=O)N1 [Example 123, 1-(7-(Piperazin-1-yl)-1H-indol-4-yl)dihydropyrimidine-2,4 (1H,3H)-dione] | 597
36 | CN1CCN(c2ccc(N3CCC(=O)NC3=O)c3cc[nH]c23)CC1 [Example 124, 1-(7-(4-Methylpiperazin-1-yl)-1H-indol-4-yl)dihydropyrimidine-2,4 (1H,3H)-dione] | 527
37 | Cn1ccc2c(N3CCC(=O)NC3=O)ccc(N3CCNCC3)c21 [Example 125, 1-(1-Methyl-7-(piperazin-1-yl)-1H-indol-4-yl)dihydropyrimidine-2,4 (1H,3H)-dione] | 458
38 | CN1CCN(c2ccc(N3CCC(=O)NC3=O)c3ccn(C)c23)CC1 [Example 126, 1-(1-Methyl-7-(4-methylpiperazin-1-yl)-1H-indol-4-yl)dihydropyrimidine-2,4 (1H,3H)-dione] | 577
39 | O=C1CCN(c2ccc3sccc3c2)C(=O)N1 [Example 130, 1-(Benzo[b]thiophen-5-yl)dihydropyrimidine-2,4 (1H,3H)-dione] | 706
40 | O=c1ccn(-c2ccc3cn(C4CCNCC4)nc3c2)c(=O)[nH]1 [Example 131, 1-(2-(Piperidin-4-yl)-2H-indazol-6-yl)pyrimidine-2,4 (1H,3H)-dione] | 2130
41 | CN1CCC(n2cc3ccc(-n4ccc(=O)[nH]c4=O)cc3n2)CC1 [Example 132, 1-(2-(1-Methylpiperidin-4-yl)-2H-indazol-6-yl)pyrimidine-2,4 (1H,3H)-dione] | 2160
42 | CN(C)c1cc(N2CCC(=O)NC2=O)cc2[nH]ccc12 [Example 133, 1-(4-(Dimethylamino)-1H-indol-6-yl)dihydropyrimidine-2,4 (1H,3H)-dione] | 2820
43 | N#Cc1cc(N2CCC(=O)NC2=O)cc2[nH]ccc12 [Example 134, 6-(2,4-Dioxotetrahydropyrimidin-1 (2H)-yl)-1H-indole-4-carbonitrile] | 1660
